Measurements reported in patent publication US8648201B2, “Aminopyridine derivatives for treating tumors and inflammatory diseases” (MERCK PATENT GmbH, priority 2009, dated 2014).

How the values were obtained:
[1] = biological target: T1, PDK1 (Homo sapiens, UniProt O15530); experiment: Test for the inhibition of PDK1 (flashplate, 33P-ATP); type: biochemical; conditions: enzyme
T1 construct: His6 (N)
T1 sequence (O15530 51-556 limits assumed): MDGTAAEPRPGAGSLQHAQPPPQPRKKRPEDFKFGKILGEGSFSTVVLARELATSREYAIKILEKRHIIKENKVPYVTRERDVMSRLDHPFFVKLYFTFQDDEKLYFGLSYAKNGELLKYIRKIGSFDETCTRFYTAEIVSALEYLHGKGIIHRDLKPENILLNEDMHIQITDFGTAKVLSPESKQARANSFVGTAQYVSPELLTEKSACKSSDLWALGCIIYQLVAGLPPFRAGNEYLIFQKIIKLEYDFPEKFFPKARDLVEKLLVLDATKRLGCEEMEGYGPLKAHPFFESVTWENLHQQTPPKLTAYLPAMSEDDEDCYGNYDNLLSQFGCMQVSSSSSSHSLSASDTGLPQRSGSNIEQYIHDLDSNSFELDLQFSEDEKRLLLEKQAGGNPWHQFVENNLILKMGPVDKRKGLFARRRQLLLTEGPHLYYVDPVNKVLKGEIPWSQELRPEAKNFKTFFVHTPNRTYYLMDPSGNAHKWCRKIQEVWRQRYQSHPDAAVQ
Description: The experimental batches are carried out in a flashplate system with 384 wells/microtitration plate.
In each case, the PDK1 sample His6-PDK1(1-50)(3.4 nM), the PDK1 substrate biotin-bA-bA-[…] (400 nM), 4 μM ATP (with 0.2 μCi of ^33P-ATP/well) and the test substance in 50 μl of conventional experimental solution per well are incubated at 30° C. for 60 min. The test substances are employed in corresponding concentrations (if desired in a dilution series). The control is carried out without test substance. The reaction is stopped using standard methods and washed. The activity of the kinase is measured via the incorporated radioactivity in top count. In order to determine the non-specific kinase reaction (blank value), the experimental batches are carried out in the presence of 100 nM staurosporin.
The radioactivity (decompositions per minute) of the blank value (no use of test substance in the presence of staurosporin) is subtracted from all other radioactivity values. The controls (kinase activity without test substance) are set equal to 100 percent and all other radioactivity values (after subtracting the blank value) are expressed set in relation thereto (for example in % of the control).
IC50 values (50% inhibition) are determined with the aid of statistics programmes, such as, for example, RS1.

[2] = biological target: T2, PDK1 (Homo sapiens, UniProt O15530); experiment: IC50 PDK1 (cell); type: cell-based
T2 construct: endogenous in cells; host or cells: commercially available colon carcinoma, ovary, prostate or breast cell lines (none named)
T2 sequence (O15530 1-556): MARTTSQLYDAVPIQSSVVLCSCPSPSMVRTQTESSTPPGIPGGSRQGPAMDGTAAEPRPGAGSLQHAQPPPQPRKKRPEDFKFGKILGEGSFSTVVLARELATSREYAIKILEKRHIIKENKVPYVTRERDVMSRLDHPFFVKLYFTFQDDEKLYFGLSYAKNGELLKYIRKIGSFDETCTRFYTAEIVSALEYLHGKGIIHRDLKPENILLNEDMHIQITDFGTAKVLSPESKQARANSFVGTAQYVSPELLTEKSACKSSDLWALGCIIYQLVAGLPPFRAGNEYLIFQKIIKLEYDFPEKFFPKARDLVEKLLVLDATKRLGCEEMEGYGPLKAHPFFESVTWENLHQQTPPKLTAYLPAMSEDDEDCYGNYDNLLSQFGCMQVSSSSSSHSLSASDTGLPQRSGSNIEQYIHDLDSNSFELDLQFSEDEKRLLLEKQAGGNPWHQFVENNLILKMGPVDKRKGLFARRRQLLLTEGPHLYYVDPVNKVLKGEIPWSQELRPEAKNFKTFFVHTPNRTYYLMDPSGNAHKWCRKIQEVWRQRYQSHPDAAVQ
Description: The cells are sown in a suitable cell density in microtitre plates (96-well format) and the test substances are added in the form of a concentration series. After four further days of cultivation in serum-containing medium, the tumour cell proliferation/tumour cell vitality can be determined by means of an Alamar Blue test system. A defined number of cells (for example 2000 cells) per culture/well in a volume of 180 μl of culture medium are sown in microtitre plates (96 well cell-culture plates) using a multichannel pipette. The cells are subsequently cultivated in a CO2 incubator (37° C. and 10% CO2). The test substances are dissolved, for example, in DMSO and subsequently employed in corresponding concentration (if desired in a dilution series) in the cell culture medium. The dilution steps can be adapted depending on the efficiency of the active ingredients and the desired spread of the concentrations. Cell culture medium is added to the test substances in corresponding concentrations. The addition of the test substances to the cells can take place on the same day as the sowing of the cells. To this end, in each case 20 μl of substance solution from the predilution plate are added to the cultures/wells. The cells are cultivated for a further 4 days at 37° Celsius and 10% CO2. In each case, 20 μl of Alamar Blue reagent are added per well, and the microtitre plates are incubated, for example, for a further seven hours in a CO2 incubator (at 37° C. and 10% CO2). The plates are measured in a reader with a fluorescence filter at a wavelength of 540 nm. The plates can be shaken gently immediately before the measurement. The absorbance value of the medium control (no cells and test substances used) is subtracted from all other absorbance values. The controls (cells without test substance) are set equal to 100 percent, and all other absorbance values are set in relation thereto (for example in % of control): Calculation: 100*(value with cells and test substance−value of medium control)/(value with cells−value of medium control) IC50 values (50% inhibition) are determined with the aid of statistics programs, such as, for example, RS1.

[3] = biological target: T3, IRAK-1 (Homo sapiens, UniProt P51617); experiment: Test for the inhibition of IRAK1 (autophosphorylation, flashplate); type: biochemical; conditions: enzyme
T3 construct: His6 (N); Dr.Jaekel Pool B, 232Y08C1.IRK
Description: (§1) The experimental batches are carried out in a flashplate system with 384 wells/microtitre plate. In each case, in order to investigate the inhibition of the autophosphorylation activity of IRAK1, the IRAK1 sample His6-IRAK1 (5.1 nM), 1 μM ATP (with 0.25 μCi of ^33P-ATP/well) and the test substance in 50 μl of conventional experimental solution per well are incubated at 22° C. for 180 min. The test substances are employed in corresponding concentrations (if desired in a dilution series). The control is carried out without test substance. The reaction is stopped using standard methods and washed. The activity of the kinase is measured via the incorporated radioactivity in top count. In order to determine the non-specific kinase reaction (blank value), the experimental batches are carried out in the presence of 1 μM staurosporin. The radioactivity (decompositions per minute) of the blank value (no use of test substance in the presence of 1 μM staurosporin) is subtracted from all other radioactivity values. The controls (kinase activity without test substance) are set equal to 100 percent and all other radioactivity values (after subtracting the blank value) are expressed set in relation thereto (for example in % of the control). IC50 values (50% inhibition) are determined with the aid of statistics programs, such as, for example, RS1.

[4] = biological target: T4, IRAK-4 (Homo sapiens, UniProt Q9NWZ3); experiment: Test for the inhibition of IRAK4 (flashplate, 33P-ATP); type: biochemical; conditions: enzyme
T4 construct: His6 (N); Dr.Jaekel
T4 sequence (Q9NWZ3 1-460): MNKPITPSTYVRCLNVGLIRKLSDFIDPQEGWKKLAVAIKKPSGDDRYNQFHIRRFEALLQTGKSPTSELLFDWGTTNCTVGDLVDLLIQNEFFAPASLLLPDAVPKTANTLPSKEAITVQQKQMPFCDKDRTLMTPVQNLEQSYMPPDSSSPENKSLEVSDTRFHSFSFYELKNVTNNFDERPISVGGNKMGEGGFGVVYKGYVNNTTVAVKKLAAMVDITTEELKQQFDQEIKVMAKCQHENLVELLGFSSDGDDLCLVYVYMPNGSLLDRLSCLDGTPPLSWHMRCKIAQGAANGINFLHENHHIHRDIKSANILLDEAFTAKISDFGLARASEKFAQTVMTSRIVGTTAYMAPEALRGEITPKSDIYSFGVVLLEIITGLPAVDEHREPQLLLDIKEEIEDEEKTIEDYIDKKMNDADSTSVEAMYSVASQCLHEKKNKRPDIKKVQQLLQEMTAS
Description: as §1, with “case,” for “case, in order to investigate”, “the IRAK4 sample His6-IRAK4 (7.3 nM),” for “the inhibition of”, “the biotinylated substrate peptide STK substrate 1-biotin (Cisbio Bioassays, France) (300” for “the autophosphorylation activity of IRAK1, the IRAK1 sample His6-IRAK1 (5.1”, “nM), 10” for “nM), 1”

[5] = biological target: T4, IRAK-4; experiment: IC50 IRAK-4 (cell); type: cell-based

T3 sequence (P51617 whole entry, species assumed): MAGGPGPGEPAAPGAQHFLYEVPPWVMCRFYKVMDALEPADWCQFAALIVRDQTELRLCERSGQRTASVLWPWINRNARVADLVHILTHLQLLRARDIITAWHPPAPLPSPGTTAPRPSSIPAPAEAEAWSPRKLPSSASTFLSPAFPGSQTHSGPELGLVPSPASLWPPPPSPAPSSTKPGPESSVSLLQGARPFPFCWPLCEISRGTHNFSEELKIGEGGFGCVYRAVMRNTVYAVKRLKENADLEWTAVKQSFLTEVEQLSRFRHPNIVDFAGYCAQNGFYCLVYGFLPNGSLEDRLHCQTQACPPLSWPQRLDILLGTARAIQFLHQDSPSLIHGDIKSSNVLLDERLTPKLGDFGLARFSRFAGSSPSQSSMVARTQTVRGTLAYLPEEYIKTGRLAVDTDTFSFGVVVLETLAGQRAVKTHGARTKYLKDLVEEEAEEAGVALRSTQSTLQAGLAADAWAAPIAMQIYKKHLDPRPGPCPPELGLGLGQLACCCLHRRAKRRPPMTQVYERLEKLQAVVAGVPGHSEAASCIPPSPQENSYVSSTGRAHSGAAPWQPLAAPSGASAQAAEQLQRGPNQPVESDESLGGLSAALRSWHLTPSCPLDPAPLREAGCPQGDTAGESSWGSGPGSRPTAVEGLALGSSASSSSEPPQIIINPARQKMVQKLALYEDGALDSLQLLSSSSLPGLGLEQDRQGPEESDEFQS

Structure (SMILES) | IC50 [1] [nM] | IC50 [2] [nM] | IC50 [3] [nM] | IC50 [4] [nM] | IC50 [5] [nM]
CC1CC(=O)NN=C1c1ccc2[nH]c(-c3cc(-c4cnn(C5CCN(C)CC5)c4)cnc3N)nc2c1 (stereo not shown) [Compound A16] | 1 to 100 | > 10000 | – | – | –
CCCn1cc(-c2cnc(N)c(-c3nc4ccccc4[nH]3)c2)cn1 [Compound A44] | – | – | 100 to 10000 | 100 to 10000 | 100 to 10000
CC(C)(C)c1ccc2nc(-c3cc(-c4cnn(C5CCNCC5)c4)cnc3N)[nH]c2c1 [Compound A53] | 1 to 100 | 100 to 10000 | – | – | –
Cn1cc(-c2cnc(N)c(-c3nc4ccc(C(O)c5ccccc5)cc4[nH]3)c2)cn1 (stereo not shown) [Compound A80] | 1 to 100 | > 10000 | – | – | –
Cn1cc(-c2cnc(N)c(-c3nc4c(O)cccc4[nH]3)c2)cn1 [Compound A102, 2-[2-Amino-5-(1-methyl-1H-pyrazol-4-yl)pyridin-3-yl]-1H-benzimidazol-4-ol] | 1 to 100 | 100 to 10000 | – | – | –
COc1ccc2nc(-c3cc(-c4cnn(C5CCN(C)CC5)c4)cnc3N)[nH]c2c1 [Compound A106, 3-(6-Methoxy-1H-benzimidazol-2-yl)-5-[1-(1-methyl-piperidin-4-yl)-1H-pyrazol-4-yl]pyridin-2-ylamine] | 1 to 100 | > 10000 | – | – | –

Continued, values first:

IC50 [1] [nM] | IC50 [2] [nM] | IC50 [3] [nM] | IC50 [4] [nM] | IC50 [5] [nM] | Structure (SMILES)
1 to 100 | > 10000 | – | – | – | CC1CC(=O)NN=C1c1ccc2nc(-c3cc(-c4cnn(CCO)c4)cnc3N)[nH]c2c1 (stereo not shown) [Compound A29, 6-(2-{2-amino-5-[1-(2-hydroxyethyl)-1H-pyrazol-4-yl]pyridin-3-yl}-3H-benzimidazol-5-yl)-5-methyl-4,5-dihydro-2H-pyridazin-3-one]
1 to 100 | 100 to 10000 | – | – | – | Nc1ncc(-c2cnn(C3CCNCC3)c2)cc1-c1nc2cc(OC(F)(F)F)ccc2[nH]1 [Compound A67]
1 to 100 | > 10000 | – | – | – | CN(C)c1ccc2nc(-c3cc(-c4cnn(C)c4)cnc3N)[nH]c2c1 [Compound A68]
– | – | 1 to 100 | 1 to 100 | 100 to 10000 | COc1ccc2nc(-c3cc(-c4cnn(C(C)C)c4)cnc3N)[nH]c2c1 [Compound A107, 5-(1-Isopropyl-1H-pyrazol-4-yl)-3-(6-methoxy-1H-benzimidazol-2-yl)pyridin-2-ylamine]
